The results in this text go back to patent US20240101538A1, “PROTEIN-PROTEIN INTERACTION MODULATORS OF AURORA KINASE A AND THEIR USE IN THE PREVENTION AND/OR TREATMENT OF CANCER” (EBERHARD KARLS UNIVERSITÄT TÜBINGEN, priority 2020, published 2024).

Read-outs that look alike come from different tables or passages of the source.

One experiment concerns NMP53^−/− cells. Description: Colony formation assay on NMP53^−/− cells. The conditions noted are these: colony formation assay; for minimal effective concentration: 5 days, read-out: EC (NMP53^−/−); for selectivity for NMP53^−/− cells: NMP53^−/− versus NMCdkn2a^ARF−/− cells. The format is cell-based, murine. The source says:
(§1) To evaluate the effect of small molecules equipped with R-spine interacting moieties, the inventors screened a focused library of proprietary p38a MAP-Kinase inhibitors which were equipped with R-spine interacting pharmacophores. To this end, the inventors utilized a screening system as developed in Dauch et al.^2 The screening system is based on colony formation assays of cell lines isolated from Nras-driven, Trp53-deficient murine HCCs, whose development is dependent on MYC (NMP53^−/− cells), as well as Nras-driven, Cdkn2a^ARF-deficient murine HCCs, which develop independently of MYC (NMCdkn2a^ARF−/− cells). Importantly, NMP53^−/− cells are sensitive to AURKA inhibitors, which induce a conformational shift in AURKA, whereas NMCdkn2a^ARF−/− are not sensitive to such compounds.
(§2) For Colony Formation Assays, cells were seeded at a density of 50 000 cells per 6 well and next day treated with a 2-fold dilution series of the indicated compounds or the highest corresponding DMSO concentration as control. After 5 days, the cells were fixed with a 10% formaldehyde solution for 30 min, washed once with water, stained with a 0.5% crystal violet solution for 30 min and washed twice with water. The compounds effective concentration (EC) was determined according to the lowest concentration in the dilution series, that inhibited cell growth substantially. The resulting benzamide containing hit structure 1, with a twofold selectivity towards NMP53^−/− cells (effective concentration on NMP53^−/− cells (EC): 2 μM, EC on Cdkn2a^ARF−/−: 4 μM, FIG. 1), served as the inventors' starting point for further compound development.

Another experiment relates to NMCdkn2a^ARF−/− cells. Description: Colony formation assay on NMCdkn2a^ARF−/− cells. Format: cell-based, murine. The note with it: 5 days, read-out: EC (NMCdkn2a^ARF−/−).
Text: as §1, §2

Setting [1] is: Mus musculus, 120 h, lowest concentration of 2-fold dilution series that inhibited cell growth substantially.

On to `CC(=O)Nc1cc(NCc2ccc(-c3cn[nH]c3)cc2)ccc1F` [Compound 2b, N-(5-((4-(1H-pyrazole-4-yl)benzyl)amino)-2-fluorophenyl)acetamide], for which the minimal effective concentration in the experiment with NMP53^−/− cells (Mus musculus, 120 h) was > 4 µM; with NMCdkn2a^ARF−/− cells (setting [1]), > 4 µM; in the experiment on NMCdkn2a^ARF−/− cells (Mus musculus, 120 h), > 4 µM.

`CCn1cc(-c2ccc(CNc3ccc(F)c(NC(=O)CCc4ccco4)c3)cc2)cn1` [Compound 3b, N-(5-((4-(1-ethyl-1H-pyrazole-4-yl)benzyl)amino)-2-fluorophenyl)-3-(furan-2-yl)propanamide]: the minimal effective concentration in the experiment with NMP53^−/− cells (setting [1]) was determined as 0.125 µM; with NMP53^−/− cells (Mus musculus, 120 h) it was 0.125 µM; in the experiment on NMCdkn2a^ARF−/− cells (setting [1]) it was 0.25 µM; with NMCdkn2a^ARF−/− cells (Mus musculus, 120 h), 0.25 µM. Also, the “selectivity for NMP53^−/− cells” value in the experiment with NMP53^−/− cells was “loss of selectivity”.

Turning to `CCCn1cc(-c2ccc(CNc3ccc(F)c(NC(=O)CCc4ccco4)c3)cc2)cn1` [Compound 3c, N-(2-fluoro-5-((4-(1-propyl-1H-pyrazole-4-yl)benzyl)amino)phenyl)-3-(furan-2-yl)propanamide], the minimal effective concentration with NMP53^−/− cells (setting [1]) was 4 µM; in the experiment with NMP53^−/− cells (Mus musculus, 120 h) it was 4 µM; in the experiment with NMCdkn2a^ARF−/− cells (setting [1]) it was > 4 µM; in the experiment with NMCdkn2a^ARF−/− cells (Mus musculus, 120 h), > 4 µM. Also, the “selectivity for NMP53^−/− cells” value in the experiment with NMP53^−/− cells is “loss of selectivity”.

On to `CC(C)n1cc(-c2ccc(CNc3ccc(F)c(NC(=O)CCc4ccco4)c3)cc2)cn1` [Compound 3d, N-(2-fluoro-5-((4-(1-isopropyl-1H-pyrazole-4-yl)benzyl)amino)phenyl)-3-(furan-2-yl)propanamide], for which the minimal effective concentration in the experiment with NMP53^−/− cells (setting [1]) was determined as 4 µM; in the experiment with NMP53^−/− cells (Mus musculus, 120 h), 4 µM; with NMCdkn2a^ARF−/− cells (setting [1]), 4 µM; with NMCdkn2a^ARF−/− cells (Mus musculus, 120 h), 4 µM. For the same molecule, the “selectivity for NMP53^−/− cells” value in the experiment with NMP53^−/− cells is “loss of selectivity”.

As for `CN(C(=O)CCc1ccco1)c1cc(NCc2ccc(-c3cnn(C)c3)cc2)ccc1F` [Compound 4, N-(2-fluoro-5-((4-(1-methyl-1H-pyrazole-4-yl)benzyl)amino)phenyl)-3-(furan-2-yl)-N-methylpropanamide], the minimal effective concentration in the experiment on NMP53^−/− cells (setting [1]) was > 4 µM; in the experiment with NMP53^−/− cells (Mus musculus, 120 h), > 4 µM; in the experiment with NMP53^−/− cells (lowest concentration of 2-fold dilution series that inhibited cell growth substantially) it was >4 µM; in the experiment with NMCdkn2a^ARF−/− cells (setting [1]), > 4 µM; in the experiment with NMCdkn2a^ARF−/− cells (Mus musculus, 120 h), > 4 µM.

Turning to `O=C(CC1CCCCC1)Nc1cc(NCc2cc(-c3cc4cccnc4[nH]3)ccn2)ccc1F` [Compound 8oj, N-(5-(((4-(1H-Pyrrolo[2,3-b]pyridin-2-yl)pyridin-2-yl)methyl)amino)-2-fluorophenyl)-2-cyclohexylacetamide], the minimal effective concentration with NMP53^−/− cells (Mus musculus, 120 h) came to 0.5 µM; with NMCdkn2a^ARF−/− cells (Mus musculus, 120 h), 1 µM.

As for `O=C(CC1CC1)Nc1cc(NCc2cc(-c3cc4cccnc4[nH]3)ccn2)ccc1F` [Compound 8ok, N-(5-(((4-(1H-Pyrrolo[2,3-b]pyridin-2-yl)pyridin-2-yl)methyl)amino)-2-fluorophenyl)-2-cyclopropylacetamide], the minimal effective concentration with NMP53^−/− cells (Mus musculus, 120 h) was determined as 0.5 µM; with NMCdkn2a^ARF−/− cells (Mus musculus, 120 h), 1 µM.

In the case of `Cc1ccc(CCC(=O)Nc2cc(NCc3ccc(-c4cn[nH]c4)cc3)ccc2F)o1` [Compound 106h, N-(5-((4-(1H-Pyrazol-4-yl)benzyl)amino)-2-fluorophenyl)-3-(5-methylfuran-2-yl)propanamide], the minimal effective concentration with NMP53^−/− cells (Mus musculus, 120 h) turned out to be 0.25 µM; with NMCdkn2a^ARF−/− cells (Mus musculus, 120 h) it was 2 µM.

In the case of `O=C(CCc1ccc[nH]1)Nc1cc(NCc2ccc(-c3cn[nH]c3)cc2)ccc1F` [Compound 106q, N-(5-((4-(1H-Pyrazol-4-yl)benzyl)amino)-2-fluorophenyl)-3-(1H-pyrrol-2-yl)propanamide], the minimal effective concentration is 1 to 2 µM in the experiment on NMP53^−/− cells (Mus musculus, 120 h) and > 4 µM with NMCdkn2a^ARF−/− cells (Mus musculus, 120 h).

Take `Cn1cc(-c2ccc(CNc3ccc(F)c(NC(=O)CCC4CCCO4)c3)cc2)cn1` (centres unmarked) [Compound 107g, N-(2-fluoro-5-((4-(1-methyl-1H-pyrazol-4-yl)benzyl)amino)phenyl)-3-(tetrahydrofuran-2-yl)propanamide]: the minimal effective concentration in the experiment with NMP53^−/− cells (Mus musculus, 120 h) turned out to be 0.125 µM; with NMCdkn2a^ARF−/− cells (Mus musculus, 120 h), 2 µM.

Turning to `Cc1ccc(CCC(=O)Nc2cc(NCc3ccc(-c4cnn(C)c4)cc3)ccc2F)o1` [Compound 107h, N-(2-fluoro-5-((4-(1-methyl-1H-pyrazol-4-yl)benzyl)amino)phenyl)-3-(5-methylfuran-2-yl)propanamide], the minimal effective concentration is 0.125 µM in the experiment with NMP53^−/− cells (Mus musculus, 120 h) and 1 µM with NMCdkn2a^ARF−/− cells (Mus musculus, 120 h).

On to `Cn1cc(-c2ccc(CNc3ccc(F)c(NC(=O)Cc4ccco4)c3)cc2)cn1` [Compound 107m, N-(2-fluoro-5-((4-(1-methyl-1H-pyrazol-4-yl)benzyl)amino)phenyl)-2-(furan-2-yl)acetamide], for which the minimal effective concentration with NMP53^−/− cells (Mus musculus, 120 h) is 0.125 µM; with NMCdkn2a^ARF−/− cells (Mus musculus, 120 h), 16 µM.

As for `Cn1cc(-c2ccc(CNc3ccc(F)c(NC(=O)CCc4ccc[nH]4)c3)cc2)cn1` [Compound 107q, N-(2-fluoro-5-((4-(1-methyl-1H-pyrazol-4-yl)benzyl)amino)phenyl)-3-(1H-pyrrol-2-yl)propanamide], the minimal effective concentration is 0.5 to 1 µM in the experiment on NMP53^−/− cells (Mus musculus, 120 h) and 4 µM in the experiment with NMCdkn2a^ARF−/− cells (Mus musculus, 120 h).

`O=C(CCc1ccco1)Nc1cc(NCc2ccc(-c3cn[nH]c3)cc2)ccc1Cl` [Compound 113a, N-(5-((4-(1H-Pyrazol-4-yl)benzyl)amino)-2-chlorphenyl)-3-(furan-2-yl)propanamide]: the minimal effective concentration in the experiment on NMP53^−/− cells is 0.5 µM; in the experiment on NMCdkn2a^ARF−/− cells, >1 µM.

As to `Cn1cc(-c2ccc(COc3ccc(F)c(NC(=O)CCc4ccccc4)c3)cc2)cn1` [Compound 124, N-(2-fluoro-5-((4-(1-methyl-1H-pyrazol-4-yl)benzyl)oxy)phenyl)-3-phenylpropanamide], the minimal effective concentration in the experiment on NMP53^−/− cells (Mus musculus, 120 h) was 0.25 µM; in the experiment with NMCdkn2a^ARF−/− cells (Mus musculus, 120 h) it was > 1 µM.

Take `COc1cc(CNc2ccc(F)c(NC(=O)CCc3ccco3)c2)ccc1-c1cn[nH]c1` [Compound 127b, N-(2-fluoro-5-((3-methoxy-4-(1H-pyrazol-4-yl)benzyl)amino)phenyl)-3-(furan-2-yl)propanamide]: the minimal effective concentration in the experiment on NMP53^−/− cells (Mus musculus, 120 h) is 0.25 µM; in the experiment with NMCdkn2a^ARF−/− cells (Mus musculus, 120 h) it was > 1 µM.

As to `O=C(CCc1ccco1)Nc1cc(NCc2ccc(-c3cn[nH]c3)cc2F)ccc1F` [Compound 127c, N-(2-fluoro-5-((2-fluoro-4-(1H-pyrazol-4-yl)benzyl)amino)phenyl)-3-(furan-2-yl)propanamide], the minimal effective concentration in the experiment on NMP53^−/− cells (Mus musculus, 120 h) was 0.125 µM; with NMCdkn2a^ARF−/− cells (Mus musculus, 120 h), 0.5 to 1 µM.

As to `COc1cc(-c2cn[nH]c2)ccc1CNc1ccc(F)c(NC(=O)CCc2ccco2)c1` [Compound 127d, N-(2-fluoro-5-((2-methoxy-4-(1H-pyrazol-4-yl)benzyl)amino)phenyl)-3-(furan-2-yl)propanamide], the minimal effective concentration stood at 0.25 µM in the experiment on NMP53^−/− cells (Mus musculus, 120 h) and 2 µM in the experiment on NMCdkn2a^ARF−/− cells (Mus musculus, 120 h).

Turning to `O=C(CCc1ccco1)Nc1cc(NCc2ccc(-c3cn[nH]c3)nc2)ccc1F` [Compound 127e, N-(5-(((6-(1H-Pyrazol-4-yl)pyridin-3-yl)methyl)amino)-2-fluorophenyl)-3-(furan-2-yl)-propanamide], the minimal effective concentration with NMP53^−/− cells (Mus musculus, 120 h) was 0.5 µM; in the experiment on NMCdkn2a^ARF−/− cells (Mus musculus, 120 h) it was > 2 µM.

For `Cn1cc(-c2ccc(CNc3ccc(F)c(NC(=O)CCc4ccco4)c3)cc2F)cn1` [Compound 128a, N-(2-fluoro-5-((3-fluoro-4-(1-methyl-1H-pyrazol-4-yl)benzyl)amino)phenyl)-3-(furan-2-yl)propanamide], the minimal effective concentration in the experiment on NMP53^−/− cells (Mus musculus, 120 h) is 0.032 µM; with NMCdkn2a^ARF−/− cells (Mus musculus, 120 h) it was 0.125 to 0.25 µM.

For `COc1cc(CNc2ccc(F)c(NC(=O)CCc3ccco3)c2)ccc1-c1cnn(C)c1` [Compound 128b, N-(2-fluoro-5-((3-methoxy-4-(1-methyl-1H-pyrazol-4-yl)benzyl)amino)phenyl)-3-(furan-2-yl)propanamide], the minimal effective concentration in the experiment on NMP53^−/− cells (Mus musculus, 120 h) is 0.062 µM; in the experiment on NMCdkn2a^ARF−/− cells (Mus musculus, 120 h), > 0.5 µM.

`Cn1cc(-c2ccc(CNc3ccc(F)c(NC(=O)CCc4ccco4)c3)c(F)c2)cn1` [Compound 128c, N-(2-fluoro-5-((2-fluoro-4-(1-methyl-1H-pyrazol-4-yl)benzyl)amino)phenyl)-3-(furan-2-yl)propanamide]: the minimal effective concentration with NMP53^−/− cells (Mus musculus, 120 h) is 0.125 µM; in the experiment with NMCdkn2a^ARF−/− cells (Mus musculus, 120 h) it was 0.5 to 1 µM.

For the molecule `COc1cc(-c2cnn(C)c2)ccc1CNc1ccc(F)c(NC(=O)CCc2ccco2)c1` [Compound 128d, N-(2-fluoro-5-((2-methoxy-4-(1-methyl-1H-pyrazol-4-yl)benzyl)amino)phenyl)-3-(furan-2-yl)propanamide], the minimal effective concentration in the experiment on NMP53^−/− cells (Mus musculus, 120 h) was 0.031 µM; in the experiment on NMCdkn2a^ARF−/− cells (Mus musculus, 120 h), > 0.5 µM.
